Test results from patent US20250304620A1, “ANTIMICROBIAL PEPTIDE AND APPLICATION THEREOF” (priority 2023, published 2025).
≈ marks a conversion by molar mass, not a printed value. Marks after values point to notes of the source that are not given here. Non-standard residues stand in square brackets, D forms with d. Residues, ends and D or L forms follow the SMILES beside them. d2Nal = N[C@H](Cc1ccc2ccccc2c1)C(=O)O; d(hLeu) = CC(C)CC[C@@H](N)C(=O)O

Experiments:
[1] = tested on: Staphylococcus aureus (NRS 384); test: microbe, parasite or virus in culture; assay type: cell-based; conditions: NRS 384
How it was run: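 CLSI broth microdilution with serial twofold dilutions gave MICs against S. aureus NRS 384, with 5 parallel replicates. Levofloxacin and the AMP Cbf-K16 served as positive controls.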

[2] = tested on: Candida glabrata ATCC 15126; assay type: cell-based
How it was run: (§1)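 Serial twofold peptide dilutions were set up in microdilution format per CLSI, MICs were read, and the procedure was repeated in 5 parallel runs.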

Candida krusei ATCC 6258 = assay type: cell-based
How it was run: as §1

[3] = tested on: Corynebacterium ATCC 7715; assay type: cell-based
How it was run: as §1

[4] = tested on: Trichophyton ATCC MYA-4438; assay type: cell-based
How it was run: as §1

[5] = tested on: Shigella flexneri ATCC 12022; test: MIC against clinically common bacterial strain; assay type: cell-based
How it was run: as §1

[6] = tested on: Methicillin-resistant Staphylococcus aureus (MRSA); assay type: cell-based; conditions: Methicillin-resistant
How it was run: (§2)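 MICs of antimicrobial peptides determined by CLSI serial twofold microdilution against clinical drug-resistant isolates. Five parallel repeats.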

[7] = tested on: carbapenem-resistant Escherichia coli (CREC); assay type: cell-based; conditions: carbapenem-resistant (CREC)
How it was run: as §2

[8] = tested on: carbapenem-resistant Klebsiella pneumoniae (CRKP); assay type: cell-based; conditions: carbapenem-resistant (CRKP)
How it was run: as §2

[9] = tested on: carbapenem-resistant Pseudomonas aeruginosa (CRPA); assay type: cell-based; conditions: carbapenem-resistant (CRPA)
How it was run: as §2

[10] = tested on: vancomycin-resistant Enterococcus (VRE); assay type: cell-based
How it was run: as §2

rabbit red blood cells = assay type: cell-based; conditions: red cells of rabbit, 1 h
[11] = tested on: Staphylococcus aureus (NRS 384); conditions: NRS 384, 3 h
Method: Trypsin (250 U/mg, pH=8.0) and AMPs (LV-1 to LV-30) were mixed in a ratio of 1:10 (w/w) and added to a reaction buffer (0.2 M sodium phosphate, 1 mM CaCl2), pH 7.5), and then incubated at 37° C. for 3 h.

[12] = tested on: Escherichia coli ATCC 25922; test: Oral formulations on mice with systemic bacterial infection; assay type: in vivo, ICR mice; conditions: 1 mg/kg gavage, three times a day for 7 days, n = 10; for Average survival times (Days): observed for 14 d
How it was run: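 ICR mice of both sexes, 10 per group, infected i.p. with 0.2 mL E. coli ATCC 25922 at 1×10^7 CFU/mL. Compounds gavaged by body weight immediately after infection, three times daily for 7 days; deaths and survival time recorded over 14 d observation.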

[13] = Serum stability assay (residual level by RP-HPLC); conditions: human

Structure (SMILES) | MIC against Staphylococcus aureus (NRS 384) [1] | MIC Candida glabrata ATCC 15126 [2] | MIC Candida krusei ATCC 6258 (Candida krusei ATCC 6258) | MIC Corynebacterium ATCC 7715 [3] | MIC Trichophyton ATCC MYA-4438 [4] | MIC Shigella flexneri ATCC 12022 [5] | MIC MRSA [6] | MIC CREC [7] | MIC CRKP [8] | MIC CRPA [9] | MIC VRE [10] | MHC (minimum hemolytic concentration, lowest concentration causing 10% hemolysis) (rabbit red blood cells) | Trypsin MIC [11] | Number of mice that died on each day after infection: day 4 [12] | Number of mice that died on each day after infection: day 5 [12] | Number of mice that died on each day after infection: day 6 [12] | Number of mice that died on each day after infection: day 7 [12] | Number of mice that died on each day after infection: day 8 [12] | Average survival times (Days) [12] | remaining at 12 h, 0.91 mg/mL [13]
CC(=O)N[C@H](CCCNC(=N)N)C(=O)N[C@H](CCCNC(=N)N)C(=O)N[C@H](CC(C)C)C(=O)N[C@H](CC(C)C)C(=O)N[C@H](Cc1ccc2ccccc2c1)C(=O)N[C@H](CCCNC(=N)N)C(=O)N[C@H](CC(C)C)C(=O)N[C@H](CCCCN)C(=O)N[C@H](Cc1ccc2ccccc2c1)C(=O)N[C@H](CCCNC(=N)N)C(=O)N[C@H](CCCCN)C(N)=O [LV-21] (Ac-[dR][dR][dL][dL][d2Nal][dR][dL][dK][d2Nal][dR][dK]-NH2) | 1 µg/mL (≈ 0.597 µM) | 16 µg/mL (≈ 9.56 µM) | 4 µg/mL (≈ 2.39 µM) | 4 µg/mL (≈ 2.39 µM) | 4 µg/mL (≈ 2.39 µM) | 2 µg/mL (≈ 1.19 µM) | 4 µg/mL (≈ 2.39 µM) | 2 µg/mL (≈ 1.19 µM) | 2 µg/mL (≈ 1.19 µM) | 4 µg/mL (≈ 2.39 µM) | 2 µg/mL (≈ 1.19 µM) | >1000 µg/mL | 1 µg/mL | 1 Mouse | 2 Mouse | 1 Mouse | 0 Mouse | 1 Mouse | 9.8** Days | 97.9%
CC(=O)N[C@H](CCCNC(=N)N)C(=O)N[C@H](CCCCN)C(=O)N[C@H](CCC(C)C)C(=O)N[C@H](CCC(C)C)C(=O)N[C@H](Cc1ccc2ccccc2c1)C(=O)N[C@H](CCCNC(=N)N)C(=O)N[C@H](CCC(C)C)C(=O)N[C@H](CCCCN)C(=O)N[C@H](Cc1ccc2ccccc2c1)C(=O)N[C@H](CCCNC(=N)N)C(=O)N[C@H](CCCCN)C(N)=O [LV-14] (Ac-[dR][dK][d(hLeu)][d(hLeu)][d2Nal][dR][d(hLeu)][dK][d2Nal][dR][dK]-NH2) | 1 µg/mL (≈ 0.592 µM) | 4 µg/mL (≈ 2.37 µM) | 16 µg/mL (≈ 9.48 µM) | 8 µg/mL (≈ 4.74 µM) | 8 µg/mL (≈ 4.74 µM) | 4 µg/mL (≈ 2.37 µM) | 4 µg/mL (≈ 2.37 µM) | 8 µg/mL (≈ 4.74 µM) | 4 µg/mL (≈ 2.37 µM) | 8 µg/mL (≈ 4.74 µM) | 4 µg/mL (≈ 2.37 µM) | >1000 µg/mL | 1 µg/mL | 1 Mouse | 2 Mouse | 1 Mouse | 0 Mouse | 1 Mouse | 9.8** Days | 97.1%
CC(=O)N[C@H](CCCNC(=N)N)C(=O)N[C@H](CCCNC(=N)N)C(=O)N[C@H](CC(C)C)C(=O)N[C@H](CC(C)C)C(=O)N[C@H](Cc1ccc2ccccc2c1)C(=O)N[C@H](CCCCN)C(=O)N[C@H](CC(C)C)C(=O)N[C@H](CCCCN)C(=O)N[C@H](Cc1ccc2ccccc2c1)C(=O)N[C@H](CCCCN)C(=O)N[C@H](CCCNC(=N)N)C(N)=O [LV-24] (Ac-[dR][dR][dL][dL][d2Nal][dK][dL][dK][d2Nal][dK][dR]-NH2) | 1 µg/mL (≈ 0.607 µM) | 4 µg/mL (≈ 2.43 µM) | 8 µg/mL (≈ 4.86 µM) | 4 µg/mL (≈ 2.43 µM) | 4 µg/mL (≈ 2.43 µM) | 2 µg/mL (≈ 1.21 µM) | 4 µg/mL (≈ 2.43 µM) | 8 µg/mL (≈ 4.86 µM) | 4 µg/mL (≈ 2.43 µM) | 8 µg/mL (≈ 4.86 µM) | 2 µg/mL (≈ 1.21 µM) | >1000 µg/mL | 1 µg/mL | 1 Mouse | 1 Mouse | 0 Mouse | 2 Mouse | 1 Mouse | 10.1*** Days | 98.3%
